{
  "source": "patent US20260285850A1",
  "about": "“SUBSTITUTED OXAZOLIDINONES AND IMIDAZOLINONES AS HERBICIDES” (FMC CORPORATION, priority 2023, published 2026)",
  "assay_type_in_all_cases": "in vivo",
  "key": {"[1]": {"system": "barnyardgrass (Echinochloa crus-galli)", "assay": "Test A postemergence application, visual injury rating 0-100", "settings": "Postemergence", "how_it_was_run": "(§1)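 Compound in a non-phytotoxic, surfactant-containing solvent is applied either as a directed soil spray before seedlings emerge or onto emerged plants 2-10 cm tall; pots hold a loam-sand blend. Plants grow 10 days under greenhouse conditions and are rated by eye against untreated controls (0 no effect, 100 complete control).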"}, "[2]": {"system": "ragweed (common ragweed, Ambrosia artemisiifolia)", "assay": "Test A postemergence application, visual injury rating 0-100", "settings": "Postemergence", "how_it_was_run": "as §1"}, "[3]": {"system": "blackgrass (Alopecurus myosuroides)", "assay": "Test A postemergence application, visual injury rating 0-100", "settings": "Postemergence", "how_it_was_run": "as §1"}, "[4]": {"system": "green foxtail (Setaria viridis)", "assay": "Test A postemergence application, visual injury rating 0-100", "settings": "Postemergence", "how_it_was_run": "as §1"}, "[5]": {"system": "galium (catchweed bedstraw, Galium aparine)", "assay": "Test A postemergence application, visual injury rating 0-100", "settings": "Postemergence", "how_it_was_run": "as §1"}, "[6]": {"system": "wheat (Triticum aestivum)", "assay": "Test A postemergence application, visual injury rating 0-100", "settings": "Postemergence", "how_it_was_run": "as §1"}, "[7]": {"system": "kochia (Bassia scoparia)", "assay": "Test A postemergence application, visual injury rating 0-100", "settings": "Postemergence", "how_it_was_run": "as §1"}, "[8]": {"system": "horseweed (Erigeron canadensis)", "assay": "Test A postemergence application, visual injury rating 0-100", "settings": "Postemergence", "how_it_was_run": "as §1"}, "[9]": {"system": "palmer (palmer amaranth, palmer pigweed, Amaranthus palmeri)", "assay": "Test A postemergence application, visual injury rating 0-100", "settings": "Postemergence", "how_it_was_run": "as §1"}, "[10]": {"system": "ryegrass, Italian (italian ryegrass, Lolium multiflorum)", "assay": "Test A postemergence application, visual injury rating 0-100", "settings": "Postemergence", "how_it_was_run": "as §1"}, "[11]": {"system": "corn (Zea mays)", "assay": "Test A postemergence application, visual injury rating 0-100", "settings": "Postemergence", "how_it_was_run": "as §1"}, "[12]": {"system": "soybean (Glycine max)", "assay": "Test A postemergence application, visual injury rating 0-100", "settings": "Postemergence", "how_it_was_run": "as §1"}, "[13]": {"system": "oat, wild (wild oat, Avena fatua)", "assay": "Test A postemergence application, visual injury rating 0-100", "settings": "Postemergence", "how_it_was_run": "as §1"}, "[14]": {"system": "barnyardgrass (Echinochloa crus-galli)", "assay": "Test A preemergence soil spray, visual injury rating 0-100", "settings": "10 days, 0 = no effect, 100 = complete control", "how_it_was_run": "as §1"}, "[15]": {"system": "ragweed (common ragweed, Ambrosia artemisiifolia)", "assay": "Test A preemergence soil spray, visual injury rating 0-100", "settings": "10 days, 0 = no effect, 100 = complete control", "how_it_was_run": "as §1"}, "[16]": {"system": "blackgrass (Alopecurus myosuroides)", "assay": "Test A preemergence soil spray, visual injury rating 0-100", "settings": "10 days, 0 = no effect, 100 = complete control", "how_it_was_run": "as §1"}, "[17]": {"system": "green foxtail (Setaria viridis)", "assay": "Test A preemergence soil spray, visual injury rating 0-100", "settings": "10 days, 0 = no effect, 100 = complete control", "how_it_was_run": "as §1"}, "[18]": {"system": "wheat (Triticum aestivum)", "assay": "Test A preemergence soil spray, visual injury rating 0-100", "settings": "10 days, 0 = no effect, 100 = complete control", "how_it_was_run": "as §1"}, "[19]": {"system": "kochia (Bassia scoparia)", "assay": "Test A preemergence soil spray, visual injury rating 0-100", "settings": "10 days, 0 = no effect, 100 = complete control", "how_it_was_run": "as §1"}, "[20]": {"system": "palmer (palmer amaranth, palmer pigweed, Amaranthus palmeri)", "assay": "Test A preemergence soil spray, visual injury rating 0-100", "settings": "10 days, 0 = no effect, 100 = complete control", "how_it_was_run": "as §1"}, "[21]": {"system": "ryegrass, Italian (italian ryegrass, Lolium multiflorum)", "assay": "Test A preemergence soil spray, visual injury rating 0-100", "settings": "10 days, 0 = no effect, 100 = complete control", "how_it_was_run": "as §1"}, "[22]": {"system": "corn (Zea mays)", "assay": "Test A preemergence soil spray, visual injury rating 0-100", "settings": "10 days, 0 = no effect, 100 = complete control", "how_it_was_run": "as §1"}, "[23]": {"system": "soybean (Glycine max)", "assay": "Test A preemergence soil spray, visual injury rating 0-100", "settings": "10 days, 0 = no effect, 100 = complete control", "how_it_was_run": "as §1"}, "[24]": {"system": "oat, wild (wild oat, Avena fatua)", "assay": "Test A preemergence soil spray, visual injury rating 0-100", "settings": "10 days, 0 = no effect, 100 = complete control", "how_it_was_run": "as §1"}, "[25]": {"system": "rice (Oryza sativa)", "assay": "Test B flooded paddy test, visual plant response rating 0-100", "settings": "250 g ai/ha, Flood, applied to paddy water, evaluated after 13 days", "how_it_was_run": "(§2)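 Treatment occurs at the 2-leaf stage by adding compound to floodwater standing 3 cm above the soil, a level kept for the whole test. Plants stay in the greenhouse 13 days before visual comparison with controls.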"}, "[26]": {"system": "ducksalad (Heteranthera limosa)", "assay": "Test B flooded paddy test, visual plant response rating 0-100", "settings": "250 g ai/ha, Flood, applied to paddy water, evaluated after 13 days", "how_it_was_run": "as §2"}, "[27]": {"system": "barnyardgrass (Echinochloa crusgalli)", "assay": "Test B flooded paddy test, visual plant response rating 0-100", "settings": "250 g ai/ha, Flood, applied to paddy water, evaluated after 13 days", "how_it_was_run": "as §2"}, "[28]": {"system": "sedge, umbrella (small-flower umbrella sedge, Cyperus difformis)", "assay": "Test B flooded paddy test, visual plant response rating 0-100", "settings": "250 g ai/ha, Flood, applied to paddy water, evaluated after 13 days", "how_it_was_run": "as §2"}, "[29]": {"settings": "31 g ai/ha, greenhouse 10 days, 0 no effect, 100 complete control"}, "[30]": {"settings": "125 g ai/ha, 10 days, 0 is no effect, 100 is complete control"}},
  "data": [
    {"smiles": "CC(=O)COC(=O)C1C=CC(NC(=O)C2(C)CN(c3cc(Cl)cc(Cl)c3)C(=O)O2)C1", "note": "(stereo not shown) [Compound 67]", "values": [
      {"measurement": "Barnyardgrass plant response rating (0 to 100 scale)", "setting": "[1]; [29]", "value": 100},
      {"measurement": "Barnyardgrass plant response rating (0 to 100 scale)", "setting": "[1]; [30]", "value": 100},
      {"measurement": "Ragweed plant response rating (0 to 100 scale)", "setting": "[2]; [29]", "value": 50},
      {"measurement": "Ragweed plant response rating (0 to 100 scale)", "setting": "[2]; [30]", "value": 80},
      {"measurement": "Blackgrass plant response rating (0 to 100 scale)", "setting": "[3]; [29]", "value": 90},
      {"measurement": "Blackgrass plant response rating (0 to 100 scale)", "setting": "[3]; [30]", "value": 100},
      {"measurement": "Foxtail, Green plant response rating (0 to 100 scale)", "setting": "[4]; [29]", "value": 90},
      {"measurement": "Foxtail, Green plant response rating (0 to 100 scale)", "setting": "[4]; [30]", "value": 90},
      {"measurement": "Galium plant response rating (0 to 100 scale)", "setting": "[5]; [29]", "value": 80},
      {"measurement": "Galium plant response rating (0 to 100 scale)", "setting": "[5]; [30]", "value": 90},
      {"measurement": "Wheat plant response rating (0 to 100 scale)", "setting": "[6]; [29]", "value": 90},
      {"measurement": "Wheat plant response rating (0 to 100 scale)", "setting": "[6]; [30]", "value": 90},
      {"measurement": "Kochia plant response rating (0 to 100 scale)", "setting": "[7]; [29]", "value": 70},
      {"measurement": "Kochia plant response rating (0 to 100 scale)", "setting": "[7]; [30]", "value": 70},
      {"measurement": "Horseweed plant response rating (0 to 100 scale)", "setting": "[8]; [29]", "value": 50},
      {"measurement": "Horseweed plant response rating (0 to 100 scale)", "setting": "[8]; [30]", "value": 70},
      {"measurement": "Amaranth, Palmer / Pigweed, Palmer plant response rating (0 to 100 scale)", "setting": "[9]; [29]", "value": 80},
      {"measurement": "Amaranth, Palmer / Pigweed, Palmer plant response rating (0 to 100 scale)", "setting": "[9]; [30]", "value": 90},
      {"measurement": "Ryegrass, Italian plant response rating (0 to 100 scale)", "setting": "[10]; [29]", "value": 70},
      {"measurement": "Ryegrass, Italian plant response rating (0 to 100 scale)", "setting": "[10]; [30]", "value": 90},
      {"measurement": "Corn plant response rating (0 to 100 scale)", "setting": "[11]; [29]", "value": 100},
      {"measurement": "Corn plant response rating (0 to 100 scale)", "setting": "[11]; [30]", "value": 100},
      {"measurement": "Soybean plant response rating (0 to 100 scale)", "setting": "[12]; [29]", "value": 80},
      {"measurement": "Soybean plant response rating (0 to 100 scale)", "setting": "[12]; [30]", "value": 80},
      {"measurement": "Oat, Wild plant response rating (0 to 100 scale)", "setting": "[13]; [29]", "value": 90},
      {"measurement": "Oat, Wild plant response rating (0 to 100 scale)", "setting": "[13]; [30]", "value": 90},
      {"measurement": "Barnyardgrass plant response rating (0-100)", "setting": "[14]; 31 g ai/ha", "value": 50},
      {"measurement": "Barnyardgrass plant response rating (0 to 100 scale)", "setting": "[14]; 125 g ai/ha", "value": 90},
      {"measurement": "Ragweed plant response rating (0-100)", "setting": "[15]; 31 g ai/ha", "value": 0},
      {"measurement": "Ragweed plant response rating (0 to 100 scale)", "setting": "[15]; 125 g ai/ha", "value": 60},
      {"measurement": "Blackgrass plant response rating (0-100)", "setting": "[16]; 31 g ai/ha", "value": 20},
      {"measurement": "Blackgrass plant response rating (0 to 100 scale)", "setting": "[16]; 125 g ai/ha", "value": 70},
      {"measurement": "Foxtail, Green plant response rating (0-100)", "setting": "[17]; 31 g ai/ha", "value": 20},
      {"measurement": "Foxtail, Green plant response rating (0 to 100 scale)", "setting": "[17]; 125 g ai/ha", "value": 90},
      {"measurement": "Wheat plant response rating (0-100)", "setting": "[18]; 31 g ai/ha", "value": 30},
      {"measurement": "Wheat plant response rating (0 to 100 scale)", "setting": "[18]; 125 g ai/ha", "value": 90},
      {"measurement": "Kochia plant response rating (0-100)", "setting": "[19]; 31 g ai/ha", "value": 70},
      {"measurement": "Kochia plant response rating (0 to 100 scale)", "setting": "[19]; 125 g ai/ha", "value": 80},
      {"measurement": "Amaranth, Palmer plant response rating (0-100)", "setting": "[20]; 31 g ai/ha", "value": 90},
      {"measurement": "Amaranth, Palmer plant response rating (0 to 100 scale)", "setting": "[20]; 125 g ai/ha", "value": 100},
      {"measurement": "Ryegrass, Italian plant response rating (0-100)", "setting": "[21]; 31 g ai/ha", "value": 70},
      {"measurement": "Ryegrass, Italian plant response rating (0 to 100 scale)", "setting": "[21]; 125 g ai/ha", "value": 80},
      {"measurement": "Corn plant response rating (0-100)", "setting": "[22]; 31 g ai/ha", "value": 0},
      {"measurement": "Corn plant response rating (0 to 100 scale)", "setting": "[22]; 125 g ai/ha", "value": 70},
      {"measurement": "Soybean plant response rating (0-100)", "setting": "[23]; 31 g ai/ha", "value": 0},
      {"measurement": "Soybean plant response rating (0 to 100 scale)", "setting": "[23]; 125 g ai/ha", "value": 30},
      {"measurement": "Oat, Wild plant response rating (0-100)", "setting": "[24]; 31 g ai/ha", "value": 40},
      {"measurement": "Oat, Wild plant response rating (0 to 100 scale)", "setting": "[24]; 125 g ai/ha", "value": 70},
      {"measurement": "Plant response rating, Rice (0 to 100 scale, 0 is no effect and 100 is complete control)", "setting": "[25]", "value": 30},
      {"measurement": "Plant response rating, Ducksalad (0 to 100 scale, 0 is no effect and 100 is complete control)", "setting": "[26]", "value": 98},
      {"measurement": "Plant response rating, Barnyardgrass (0 to 100 scale, 0 is no effect and 100 is complete control)", "setting": "[27]", "value": 65},
      {"measurement": "Plant response rating, Sedge, Umbrella (0 to 100 scale, 0 is no effect and 100 is complete control)", "setting": "[28]", "value": 100}
    ]}
  ]
}
